Assay [1] deals with T1, Indoleamine 2,3-dioxygenase 1 (Homo sapiens, UniProt P14902). Nature of the assay: Inhibition of human recombinant IDO expressed in Escherichia coli using N-formylkynurenine as substrate incubated for 1 hr prior to NaOH addition measured after 4 hrs by spectrophotometry.
In assay [2] the target is T1, Indoleamine 2,3-dioxygenase 1. The assay is described as follows: Inhibition of IDO in human HeLa cells after 24 hrs by spectrophotometry. The format is cell-based.

Bounds are passed on as bounds.

What is called IC50 is the concentration needed to halve the response being measured. As usually defined, the EC50 is the midpoint of the concentration-response curve.

T1 sequence (P14902 whole entry): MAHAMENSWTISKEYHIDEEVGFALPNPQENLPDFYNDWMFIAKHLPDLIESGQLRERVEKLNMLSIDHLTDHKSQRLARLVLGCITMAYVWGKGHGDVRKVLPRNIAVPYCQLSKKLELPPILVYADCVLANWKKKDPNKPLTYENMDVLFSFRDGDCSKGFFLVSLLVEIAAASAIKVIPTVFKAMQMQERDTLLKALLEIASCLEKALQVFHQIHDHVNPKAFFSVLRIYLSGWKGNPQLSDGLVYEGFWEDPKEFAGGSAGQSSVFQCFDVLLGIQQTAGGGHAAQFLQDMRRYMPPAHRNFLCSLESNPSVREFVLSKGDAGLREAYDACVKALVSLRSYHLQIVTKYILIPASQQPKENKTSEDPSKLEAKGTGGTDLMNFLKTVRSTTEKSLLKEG

As to `CC(=O)Nc1ccc(S(=O)(=O)NNc2cccc(C)c2)cc1`, the IC50 in assay [1] was determined as 49 nM. This molecule registered a half-maximal effective concentration (EC50) in assay [2] of 241 nM.
As to `O=S(=O)(CCc1ccccc1)NNc1ccccc1`, the IC50 in assay [1] came out at 167 nM. For the same molecule, in assay [2], the EC50 was more than 10000 nM.
Taken in the same sequence, the figures for `Cc1cccc(NNS(=O)(=O)c2ccc(C(=O)NCC(=O)O)cc2)c1` were 80 nM and 271 nM.
The matching figures for `Cc1cccc(NNS(=O)(=O)c2ccc(S(C)(=O)=O)cc2)c1`: 43 nM and 7850 nM.
Taken in the same sequence, the figures for `Cc1cccc(NNS(=O)(=O)c2ccc(C#N)cc2)c1` were 59 nM and 3400 nM.
Take `Cc1cccc(NNS(=O)(=O)c2ccc(Oc3ccc(C(F)(F)F)cn3)cc2)c1`: the half-inhibitory concentration (IC50) in assay [1] was 59 nM. The molecule also had an EC50 in assay [2] of 296 nM.
The matching figures for `CC(=O)Nc1ccc(S(=O)(=O)NNc2ccccc2)cc1`: 71 nM and more than 10000 nM.
Taken in the same sequence, the figures for `CC(=O)Nc1ccc(S(=O)(=O)NNc2ccc(C)cc2)cc1` were 51 nM and 1170 nM.
Regarding `COc1ccc(NNS(=O)(=O)c2ccc(NC(C)=O)cc2)cc1`, in assay [1], the IC50 was determined as 254 nM. The molecule also yielded an EC50 in assay [2] of more than 10000 nM.
As to `CC(=O)Nc1ccc(S(=O)(=O)NNc2ccc(C#N)cc2)cc1`, the IC50 in assay [1] is 5670 nM. In assay [2], this molecule registered an EC50 of 1390 nM.
As for `CC(=O)Nc1ccc(S(=O)(=O)NNc2ccc(S(N)(=O)=O)cc2)cc1`, the IC50 in assay [1] was determined as 2480 nM. Further, the EC50 in assay [2] was 3120 nM.
In the case of `CC(=O)Nc1ccc(S(=O)(=O)NNc2ccc(C(F)(F)F)cc2)cc1`, the IC50 in assay [1] came out at 1610 nM. The midpoint of the response in assay [2], the EC50, lay at 181 nM.
Taken in the same sequence, the figures for `CC(=O)Nc1ccc(S(=O)(=O)NNc2ccc(F)cc2)cc1` were 79 nM and 609 nM.
Taken in the same sequence, the figures for `CC(=O)Nc1ccc(S(=O)(=O)NNc2ccc(Cl)cc2)cc1` were 155 nM and 142 nM.
The matching figures for `CC(=O)Nc1ccc(S(=O)(=O)NNc2ccc(Br)cc2)cc1`: 130 nM and 85 nM.
Turning to `CC(=O)Nc1ccc(S(=O)(=O)NNc2cccc(F)c2)cc1`, in assay [1], the IC50 was found to be 122 nM. The EC50 in assay [2] was more than 10000 nM.
`CC(=O)Nc1ccc(S(=O)(=O)NNc2cccc(Br)c2)cc1`: the IC50 in assay [1] amounted to 255 nM. In addition, in assay [2], the concentration giving a half-maximal response (EC50) was 7560 nM.
The matching figures for `CC(=O)Nc1ccc(S(=O)(=O)NNc2ccc(F)c(Br)c2)cc1`: 128 nM and 2490 nM.
In the case of `CC(=O)Nc1ccc(S(=O)(=O)NNc2ccc(F)c(Cl)c2)cc1`, in assay [1], the IC50 was determined as 110 nM. The molecule further displayed an EC50 in assay [2] of 2590 nM.
Taken in the same sequence, the figures for `CC(=O)Nc1ccc(S(=O)(=O)NNc2ccc(Br)c(F)c2)cc1` were 205 nM and 187 nM.
Taken in the same sequence, the figures for `CC(=O)Nc1ccc(S(=O)(=O)NNc2ccc(Br)c(C)c2)cc1` were 58 nM and 130 nM.
With `CC(=O)Nc1ccc(S(=O)(=O)NNc2ccc(Cl)c(F)c2)cc1`, the IC50 in assay [1] came out at 194 nM. In assay [2], this molecule gave a 50% effective concentration (EC50) of 84 nM.
The matching figures for `CC(=O)Nc1ccc(S(=O)(=O)NNc2cc(F)cc(F)c2)cc1`: 1750 nM and 2230 nM.
Taken in the same sequence, the figures for `CC(=O)Nc1ccc(S(=O)(=O)NNc2ccc(F)cc2F)cc1` were 608 nM and more than 10000 nM.
The matching figures for `CC(=O)Nc1ccc(S(=O)(=O)NNc2ccc(Cl)c(Cl)c2)cc1`: 247 nM and 350 nM.
As for `CC(=O)Nc1ccc(S(=O)(=O)NNc2cc(Cl)cc(Cl)c2)cc1`, the IC50 in assay [1] was 352 nM. For the same molecule, a half-maximal response in assay [2] (EC50) required 508 nM.
Taken in the same sequence, the figures for `O=S(=O)(NNc1ccc(Br)cc1)c1ccccc1` were 172 nM and 128 nM.
The matching figures for `O=S(=O)(NNc1ccc(Br)cc1)c1ccc(Br)cc1`: 85 nM and 374 nM.
Taken in the same sequence, the figures for `COc1ccc(S(=O)(=O)NNc2ccc(Br)cc2)cc1` were 1430 nM and 640 nM.
With `N#Cc1ccc(S(=O)(=O)NNc2ccc(Br)cc2)cc1`, the IC50 in assay [1] worked out at 176 nM. For the same molecule, a half-maximal effect in assay [2] (EC50) was put at 134 nM.
Taken in the same sequence, the figures for `COC(=O)CCc1ccc(S(=O)(=O)NNc2ccc(Br)cc2)cc1` were 121 nM and 465 nM.
Taken in the same sequence, the figures for `CCCC(=O)Nc1ccc(S(=O)(=O)NNc2ccc(Br)cc2)cc1` were 132 nM and 187 nM.
The matching figures for `O=C(O)CCc1ccc(S(=O)(=O)NNc2ccc(Br)cc2)cc1`: 141 nM and 183 nM.
For the molecule `O=C(O)COc1ccc(S(=O)(=O)NNc2ccc(Br)cc2)cc1`, the IC50 in assay [1] came out at 125 nM. Besides, a half-maximal effect in assay [2] (EC50) was put at 152 nM.
Turning to `O=C(O)c1ccc(S(=O)(=O)NNc2ccc(Br)cc2)cc1`, the IC50 in assay [1] was 61 nM. In assay [2], this molecule gave an EC50 of 172 nM.
Regarding `CC(=O)Nc1ccc(S(=O)(=O)NN(C)c2ccc(Br)cc2)cc1`, the IC50 in assay [1] is 4050 nM.
